Assay results from article PMC6473159, “Potent Inhibition of Zika Virus Replication by Aurintricarboxylic Acid” (Frontiers in Microbiology, 2019).
Where two headings read alike, the source gives them in different places.

Tests used:
[1] = Cell viability assay (CellTiter 96), Vero cells; type: cell-based, African green monkey; conditions: African green monkey; for CC50 at 36 h: 36 h post-treatment; for CC50 at 72 h: 72 h post-treatment
Experimental: (§1) Cell viability in Vero and A549 cells was measured using the CellTiter 96 Non-Radioactive Cell Proliferation assay (Promega) following the manufacturer’s instructions. […] Plates were incubated at 37°C in a 5% CO2 atmosphere for 36 or 72 h. Samples were treated with 15 μl of Dye Solution and incubated at 37°C in a 5% CO2 atmosphere for 4 h. Next, cells were treated with 100 μl of Solubilization Solution/Stop Mix and absorbance at 570 nm was measured using a Vmax kinetic microplate reader (Molecular Devices, Waltham, MA, United States). Viability of compound-treated cells was calculated as a percentage relative to values obtained with DMSO-treated cells. Non-linear regression curves and the median cytotoxic concentration (CC50) were calculated using GraphPad Prism software version 8.0.

[2] = Cell viability assay (CellTiter 96), A549 cells; type: cell-based, human; conditions: human; for CC50 at 36 h: 36 h post-treatment; for CC50 at 72 h: 72 h post-treatment
Experimental: as §1

ZIKV Paraiba/2015 [3] = assay: Microplaque reduction assay, ZIKV Paraiba/2015 in Vero cells, post-infection treatment; type: cell-based; conditions: for selectivity ratio at 36 h: African green monkey, Vero cells infected with ZIKV Paraiba/2015, Paraiba/2015, Vero cells, read-out: SI (selective index, CC50/IC50); for IC50: Zika virus, Vero
ZIKV Paraiba/2015 [4] = assay: Microplaque reduction assay, ZIKV Paraiba/2015 in A549 cells, post-infection treatment; type: cell-based; conditions: for IC50: Zika virus, A549, 36 h; for selectivity ratio at 36 h: human, A549 cells infected with ZIKV Paraiba/2015, Paraiba/2015, A549 cells, post-treatment, read-out: SI (selective index, CC50/IC50)
Vero cells = assay: Cell viability assay (CellTiter 96), Vero cells; type: cell-based, African green monkey; conditions: 36 or 72 h post-treatment, up to highest concentration tested (1,000 μM)
Experimental: as §1

A549 cells = assay: Cell viability assay (CellTiter 96), A549 cells; type: cell-based, human; conditions: 36 or 72 h post-treatment, up to highest concentration tested (1,000 μM)
Experimental: as §1

ZIKV Paraiba/2015 [5] = assay: Microplaque reduction assay, pre-treatment of Vero cells before ZIKV Paraiba/2015 infection; type: cell-based; conditions: for IC50: Zika virus, Vero, fixed 36 h p.i.
ZIKV Paraiba/2015 [6] = assay: Virus growth kinetics, ZIKV Paraiba/2015 in Vero cells; type: cell-based, Zika virus
Experimental: (§2) At 12, 24, 48, and 72 h post-infection (h p.i.), tissue culture supernatants were collected and titrated on Vero cells by immunostaining as described previously ([Marquez-Jurado et al., 2018]).
(§3) Dotted line indicates the limit of detection (20 FFU/ml).

ZIKV Paraiba/2015 [7] = assay: Virus growth kinetics, ZIKV Paraiba/2015 in A549 cells; type: cell-based, Zika virus
Experimental: as §2, §3

[8] = test system: ZIKV-induced CPE in Vero cells; assay: ZIKV-induced cytopathic effect (light microscope), Vero cells; type: cell-based, African green monkey; conditions: MOI 0.1, 48 h p.i., 25 μM and more clearly 250 μM
[9] = test system: ZIKV-induced CPE in A549 cells; assay: ZIKV-induced cytopathic effect (light microscope), A549 cells; type: cell-based, human; conditions: MOI 0.1, 48 h p.i., 25 μM and more clearly 250 μM
Vaccinia virus = conditions: 30 mg/kg/day, ref Smee et al., 2010; cited from earlier work
ZIKV Uganda/1947 = assay: Microplaque reduction assay, ZIKV Uganda/1947 in Vero cells
[10] = test system: caspase 3 and 7 activities; assay: Apoptosis assay (Caspase-Glo 3/7), ZIKV-infected Vero cells; conditions: 250 μM
[11] = test system: caspase 3 and 7 activities; assay: Apoptosis assay (Caspase-Glo 3/7), ZIKV-infected A549 cells; conditions: 250 μM
ZIKV Nigeria/1968 = assay: Microplaque reduction assay, ZIKV Nigeria/1968 in Vero cells
ZIKV Puerto Rico/2015 = assay: Microplaque reduction assay, ZIKV Puerto Rico/2015 in Vero cells
[12] = test system: ZIKV French Polynesia/2013; assay: Microplaque reduction assay, ZIKV French Polynesia/2013 in Vero cells
ZIKV [13] = test system: ZIKV; design: method as in Yang et al., 2018; conditions: SNB-19 cells; ref Yang et al., 2018; cited from earlier work
ZIKV [14] = test system: ZIKV; design: method as in Yang et al., 2018; conditions: ENV+ cells; ref Yang et al., 2018; cited from earlier work
ZIKV [15] = test system: ZIKV; design: method as in Kuivanen et al., 2017; conditions: human retinal pigment epithelial (RPE) cells; ref Kuivanen et al., 2017; cited from earlier work
ZIKV [16] = test system: ZIKV; design: method as in Bullard-Feibelman et al., 2017; conditions: Huh-7 cells; ref Bullard-Feibelman et al., 2017; cited from earlier work
ZIKV [17] = test system: ZIKV; design: method as in Bullard-Feibelman et al., 2017; conditions: Jar cells; ref Bullard-Feibelman et al., 2017; cited from earlier work
[18] = reading time not stated at the place (assay read at 36 and 72 h)

Work on `CCOC(=O)c1c(CSc2ccccc2)n(C)c2cc(Br)c(O)c(CN(C)C)c12` [ARB, Arbidol] yielded a CC50 at 36 h [1] of 74.7 ± 1.09 µM, a CC50 at 72 h [1] of 59.4 ± 1.1 µM and a CC50 at 36 h [2] of 114.6 ± 1.08 µM. The CC50 at 72 h [2] was 91 ± 1.08 µM, the selectivity ratio at 36 h (ZIKV Paraiba/2015 [3]; post-treatment, 36 h) was 4.11 and the IC50 (ZIKV Paraiba/2015 [3]; 36 h) was 18.2 ± 1.16 µM. For the same molecule, the IC50 (ZIKV Paraiba/2015 [4]) was 51.9 ± 1.08 µM and the selectivity ratio at 36 h (ZIKV Paraiba/2015 [4]) was 2.21.

In the case of `O=C(O)C1=CC(=C(c2ccc(O)c(C(=O)O)c2)c2ccc(O)c(C(=O)O)c2)C=CC1=O` [ATA, aurintricarboxylic acid], the CC50 at 36 h [1] is reported as over 1000 µM, the CC50 at 72 h [1] is reported as over 1000 µM and the CC50 [1, 18] is reported as over 1000 µM. For the same molecule, the “toxicity (cell viability)” value (Vero cells) was “did not observe any toxicity”, the CC50 at 36 h [2] was over 1000 µM and the CC50 at 72 h [2] was over 1000 µM. For the same molecule, the CC50 [2, 18] was over 1000 µM, the “toxicity (cell viability)” value (A549 cells) was “did not observe any toxicity” and the selectivity ratio at 36 h (ZIKV Paraiba/2015 [3]; post-treatment, 36 h) was 72.1. For the same molecule, the “SI (selective index, CC50/IC50)” value (ZIKV Paraiba/2015 [3]; Paraiba/2015, Vero cells, post-treatment, 36 h) was over 72.10, the “SI (selective index), range in Vero cells” value (ZIKV Paraiba/2015 [3]; Vero cells, range over all ZIKV strains and pre-/post-treatment settings of this study) was 56.98–95.24 and the IC50 (ZIKV Paraiba/2015 [3]; 36 h) was 13.9 ± 1.09 µM. For the same molecule, the IC50 (ZIKV Paraiba/2015 [4]) was 33.3 ± 1.13 µM, the selectivity ratio at 36 h (ZIKV Paraiba/2015 [4]) was 26.3 and the selectivity ratio at 12 h (ZIKV Paraiba/2015 [5]; African green monkey, pre-treatment 12 h, read-out: SI (selective index, CC50/IC50)) was over 69.8. For the same molecule, the selectivity ratio at 24 h (ZIKV Paraiba/2015 [5]; African green monkey, pre-treatment 24 h, read-out: SI (selective index, CC50/IC50)) was over 75.9, the selectivity ratio at 48 h (ZIKV Paraiba/2015 [5]; African green monkey, pre-treatment 48 h, read-out: SI (selective index, CC50/IC50)) was over 79.4 and the selectivity ratio at 72 h (ZIKV Paraiba/2015 [5]; African green monkey, pre-treatment 72 h, read-out: SI (selective index, CC50/IC50)) was over 95.2. It also gave an IC50 (ZIKV Paraiba/2015 [5]; pre-treatment 12 h before infection) of 14.3 ± 1.06 µM, an IC50 (ZIKV Paraiba/2015 [5]; pre-treatment 24 h before infection) of 13.2 ± 1.05 µM and an IC50 (ZIKV Paraiba/2015 [5]; pre-treatment 48 h before infection) of 12.6 ± 1.02 µM. The IC50 (ZIKV Paraiba/2015 [5]; pre-treatment 72 h before infection) was 10.5 ± 1.05 µM, the “ZIKV replication (viral titer in supernatant)” value (“ZIKV replication” for short) (ZIKV Paraiba/2015 [6]; MOI 0.1, 2.5 μM) was “partial viral inhibition” and the “ZIKV replication” value (ZIKV Paraiba/2015 [6]; MOI 0.1, 250 μM) was “completely inhibited”. For the same molecule, the “ZIKV replication” value (ZIKV Paraiba/2015 [7]; MOI 0.1, 25 μM) was “partial viral inhibition”, the “ZIKV replication” value (ZIKV Paraiba/2015 [7]; MOI 0.1, 250 μM) was “completely inhibited” and the “ZIKV-induced CPE” value [8] was “able to prevent ZIKV-induced CPE”. The “ZIKV-induced CPE” value [9] was “able to prevent ZIKV-induced CPE”, the “protection of mice from a lethal challenge” value (Vaccinia virus) was “did not protect” and the selectivity ratio at 48 h (ZIKV Uganda/1947; African green monkey, Vero cells infected with ZIKV Uganda/1947) was over 66.3. For the same molecule, the IC50 (ZIKV Uganda/1947; Zika virus, Vero, 48 h) was 15.1 ± 1.19 µM, the “caspase 3 and 7 induction as compared to mock-infected cells” value [10] was 0.4 fold and the “caspase 3 and 7 induction as compared to mock-infected cells” value [11] was 1.7 fold. It also gave a selectivity ratio at 60 h (ZIKV Nigeria/1968; African green monkey, Vero cells infected with ZIKV Nigeria/1968) of over 62.6, an IC50 (ZIKV Nigeria/1968; Zika virus, Vero, 60 h) of 16 ± 1.02 µM and a selectivity ratio at 48 h (ZIKV Puerto Rico/2015; African green monkey, Vero cells infected with ZIKV Puerto Rico/2015) of over 57. For the same molecule, the IC50 (ZIKV Puerto Rico/2015; Zika virus, Vero, 48 h) was 17.6 ± 1.16 µM, the selectivity ratio at 48 h ([12]; African green monkey, Vero cells infected with ZIKV French Polynesia/2013) was over 76.8 and the IC50 ([12]; Zika virus, Vero, 48 h) was 13.9 ± 1.01 µM.

In the case of `CC[C@H]1CN2CCc3cc(OC)c(OC)cc3[C@@H]2C[C@@H]1C[C@H]1NCCc2cc(OC)c(OC)cc21` [emetine], the SI (ZIKV [13]) is listed as 9.84 and the SI (ZIKV [14]) is listed as 2.88.

In the case of `Nc1ccn([C@@H]2O[C@H](CO)[C@@H](O)C2(F)F)c(=O)n1` [gemcitabine], the SI (ZIKV [15]) is given as > 1,000.

For `COC1=CC(c2cc3ccccc3[nH]2)=N/C1=C\c1[nH]c(C)cc1C` [obatoclax], the SI (ZIKV [15]) is given as 65.

For `C[C@H]1C/C=C/Cc2cccc(O)c2C(=O)O[C@@H](C/C=C/NC(=O)C#Cc2ccccc2)C[C@H]1O` [saliphenylhalamide], the SI (ZIKV [15]) is given as over 200.

For `CC(C)OC(=O)[C@H](C)N[P@](=O)(OC[C@H]1O[C@@H](n2ccc(=O)[nH]c2=O)[C@](C)(F)[C@@H]1O)Oc1ccccc1` [sofosbuvir], the SI (ZIKV [16]) is given as over 52.63 and the SI (ZIKV [17]) is given as over 90.9.
